What all share (format): in vivo
One data set relates to Spodoptera litura. Put plainly: Efficacy test against Spodoptera litura. The settings on record: 144 h, cabbage leaves soaked, second-instar larvae, after 6 days, read-out: insect mortality rate. Here is the method: (§1) 5 parts of the compound of the present invention, 93.6 parts of dimethylformamide, and 1.4 parts of polyoxyethylene alkylaryl ether were mixed and dissolved to prepare an emulsion (I) of 5% of the active ingredient.
(§2) The insect mortality rate and the control rate were calculated by the following formula. Insect mortality rate (%)=(number of dead insects/number of sample insects)×100 Prevention rate=[1−(Nt)/(Nc)]×100
Emulsion (I) was diluted with water so that the concentration of the compound of the present invention reaches 125 ppm. Cabbage leaves were soaked in the diluted liquid for 30 seconds. Then the cabbage leaves were put on Petri dishes, followed by inoculating 5 second-instar larvae of Spodoptera litura. The Petri dishes were placed in a thermostatic chamber with a temperature was 25° C. and a humidity of 60%. Life or death judgement was performed after 6 days were passed, and the insect mortality rate was calculated. The test was repeated twice.

For another data set, the system named is Plutella xylostella. The data set is described as follows: Efficacy test against Plutella xylostella. The conditions noted are these: 72 h, cabbage leaves soaked, second-instar larvae, after 3 days, read-out: mortality rate. The protocol: as §1, §2
Emulsion (I) was diluted with water so that the concentration of the compound of the present invention reaches 125 ppm. Cabbage leaves were soaked in the diluted liquid for 30 seconds. Then the cabbage leaves were put on Petri dishes, followed by inoculating 5 second-instar larvae of Plutella xylostella. The Petri dishes were placed in a thermostatic chamber with a temperature was 25° C. and a humidity of 60%. Life or death judgement was performed after 3 days were passed, and the insect mortality rate was calculated. The test was repeated twice.

The test system of another data set is Aphis craccivora. Put plainly: Efficacy test against Aphis craccivora. The settings on record: 96 h, spray on infested cowpea plants, nymphs, 4 days after spraying, read-out: mortality rate. The protocol:
as §1, §2
Cowpea plants were raised in No. 3 pots and the first true leaves were inoculated with Aphis craccivora nymphs. Emulsion (I) was diluted with water so that the concentration of the compound of the present invention reaches 125 ppm, followed by spraying the diluted liquid on the cowpea plants infested with Aphis craccivora nymphs. The cowpea plants were then placed in a thermostatic chamber with a temperature of 25° C. and a humidity of 60%. Life or death judgement was performed after 4 days were passed from the spraying, and the insect mortality rate of Aphis craccivora was calculated. The test was repeated twice.

The subject of a further data set is Phyllotreta striolata. Put plainly: Efficacy test against Phyllotreta striolata. The conditions noted are these: 168 h, spray on bok choy seedlings, adults, 7 days after releasing, read-out: insect mortality rate. Here is the method:
as §1, §2
Emulsion (I) was diluted with water so that the compound of the present invention reaches 125 ppm to prepare a test solution. The above diluted solution was sprayed on bok choy seedlings (seventh true leaf development stage) planted in No. 3 pots. After air-drying, the bok choy seedlings were put in a plastic cup and 10 adult Phyllotreta striolata were released therein. The plastic cup was stored in a thermostatic chamber with a temperature of 25° C. and a humidity of 65%, and life or death judgment was performed 7 days after releasing Phyllotreta triolata, and the insect mortality rate was calculated by the formula. The test was repeated twice.

A further data set concerns Musca domestica. Put plainly: Efficacy test against Musca domestica. The conditions noted are these: 100 ppm on cube sugar, adult female, after 24 hours, read-out: insect mortality rate. Here is the method:
as §2
The compound of the present invention was diluted with acetone, followed by dropping to 1 g of cube sugar so that the concentration reaches to 100 ppm. The cube sugar was placed in a plastic cup and 10 adult female Musca domestica were released therein, followed by putting a lid on the cup. The cup was kept at 25° C., and life or death judgement was performed after 24 hours was passed from the releasing of Musca domestica, and the insect mortality rate was calculated by the formula. The test was repeated twice.

The test system of the next data set is Culex pipiens. Put plainly: Efficacy test against Culex pipiens. The conditions noted are these: Culex pipiens, 24 h, read-out: insect mortality rate. Here is the method:
as §1, §2
Emulsion (I) was diluted with water so that the concentration of the compound of the present invention reaches 2 ppm to prepare a chemical solution for test. 20 first-instar larvae of Culex pipiens were released into 100 ml of the chemical solution for test, then the number of dead insects was calculated after 1 day was passed, and the insect mortality rate was calculated by the formula. The test was repeated twice.

A further data set concerns Ornithodorus moubata. Put plainly: Feeding effect test against Ornithodorus moubata. The conditions noted are these: 10 ppm in defibrin blood of sheep; third-nymphs; 14 days after the blood sucking. The protocol:
A DMSO solution of the compound of the present invention was mixed with a defibrin blood of sheep to obtain a mixed solution with a concentration of 10 ppm. 2 ml of this mixed solution was placed in a container and capped with a parafilm membrane. Then, 20 third-nymphs of Ornithodorus moubata ere released to suck the blood through the parafilm membrane for about 30 minutes. Then, the nymphs were transferred to a storage container and incubated in a thermostatic chamber with a temperature of 28° C. and a humidity of 80%, and life or death judgement and developmental stage-investigation was performed 14 days after the blood sucking. The test was repeated twice.

Another data set concerns Rhipicephalus microplus. The data set is described as follows: Contact effect test on Rhipicephalus microplus. The conditions noted are these: larvae, 24 hours after the chemical treatment, read-out: insect mortality rate. Here is the method:
A DMSO solution of the compound of the present invention was diluted with water to obtain a test solution with a concentration of 100 ppm. This chemical solution was dropped into a container containing 20 Rhipicephalus microplus larvae, and then incubated in a thermostatic chamber with a temperature of 28° C. and a humidity of 80%. Life or death judgement was performed on the larvae 24 hours after the chemical treatment. The test was repeated twice.

A further data set deals with Lucilia cuprina larvae. The data set is described as follows: Contact/feeding effect test on Lucilia cuprina larvae. The settings on record: 1000 ppm in horse meat, 48 hours, read-out: insect mortality rate. Here is the method:
A DMSO solution of the compound of the present invention was mixed with horse meat to obtain a mixture with a concentration of 1000 ppm. 20 Lucilia cuprina larvae were introduced into a test tube with the mixture. The tube was incubated in a thermostatic chamber with a temperature of 28° C. and a humidity of 80%, and life and death judgement was performed on the larvae 48 hours after the start of the test. The test was repeated twice.

Another data set deals with Aedes aegypti larvae. The data set is described as follows: Contact/feeding effect test on Aedes aegypti larvae. The conditions noted are these: final concentration of 10 ppm, first-instar larvae, 48 hours, read-out: insect mortality rate. The protocol:
A DMSO solution of the compound of the present invention was diluted with water to obtain a diluted solution with a concentration of 100 ppm. 10 first-instar larvae of Aedes aegypti were placed in each well of a 96-well microtiter plate together with breeding water, and 1/10 volume of the diluted solution with a concentration of 100 ppm was added so that the test was carried out at a final concentration of 10 ppm. The microtiter plate was incubated in a thermostatic chamber with a temperature of 28° C. and a humidity of 80%, and life or death judgement was performed on the larvae was investigated 48 hours after the chemical treatment. The test was repeated twice.

For a further data set, the system named is Pseudaletia separata. The data set is described as follows: Efficacy test against Pseudaletia separata (artificial diet). The settings on record: in vivo. The protocol:
as §1, §2
0.8 g of commercially available artificial diet (Insecta US, manufactured by Nosan Corporation) and 1 μl of emulsion (1) were well mixed and 0.2 g of the resulting mixture was packed in a plastic test container (1.4 ml) per each treatment group to prepare test feeds.
2 second-instar larvae of Pseudaletia separata were inoculated into each treatment group and sealed with a plastic lid. The plastic test containers were placed in a thermostatic chamber with a temperature of 25° C., and the insect mortality rate and the food intake amount were investigated on the fifth day. The test was repeated twice.
Further, a test under the same conditions except that the compound of the present invention was removed from emulsion (I) was conducted as a solvent control group.

The test system of another data set is Rhopalosiphum padi. Put plainly: Efficacy test against Rhopalosiphum padi (seed treatment). The settings on record: 0.1 g compound per 10 g wheat seeds, adults released 7 days after seeding, counted after 6 days. Here is the method: as §2
Nt: number of parasites in spray-treatment area
Nc: number of parasites in control area
0.1 g of each compound of the present invention was diluted with 2 ml of acetone to prepare chemical solutions for test. 10 g of wheat seeds was added to the chemical solution for test and air dried, followed by seedling 100 seeds in a planter. After keeping the planter in a warm room with a temperature of 25° C. for 7 days, 50 adult Rhopalosiphum padi were released in the planter. The number of surviving parasitized Rhopalosiphum padi was investigated after 6 days were passed, and the prevention rate was calculated by the formula. The test was repeated twice.

For 3 molecules, mortality, insect mortality rate and prevention rate results are on record in patent US10548316B2, “Diarylazole compound and harmful organism control agent” (Nippon Soda Co., Ltd., priority 2015, dated 2020).

Where only a bound is given, the exact number is not on record here.

What is called mortality is the share of the test organisms that died. On to `CCS(=O)(=O)c1cc(C(F)(F)F)ccc1-n1ncc(-c2ccc(OC(F)(F)F)cc2)c1N` [Compound 1-12, 1-(2-(ethylsulfonyl)-4-(trifluoromethyl)phenyl)-4-(4-(trifluoromethoxy)phenyl)-1H-pyrazol-5-amine], for which the mortality at 125 ppm in the data set on Spodoptera litura, in the data set with Plutella xylostella, in the data set with Aphis craccivora and in the data set with Phyllotreta striolata was at least 80% in each case. Besides, the mortality at 100 ppm is at least 80% with Musca domestica and at least 90% in the data set with Rhipicephalus microplus. Further, the mortality at 2 ppm in the data set on Culex pipiens was determined as 100%. Further, the insect mortality rate in the data set on Ornithodorus moubata is recorded as at least 90%. In addition, the mortality at 1000 ppm in the data set on Lucilia cuprina larvae was at least 90%. In the data set with Aedes aegypti larvae, the mortality at 10 ppm is at least 90%.
With `CCS(=O)(=O)c1cc(C(F)(F)F)ccc1-n1ncc(-c2ccc(OC(F)(F)F)cc2)c1Cl` [Compound 1-17, 5-chloro-1-(2-(ethylsulfonyl)-4-(trifluoromethyl)phenyl)-4-(4-(trifluoromethoxy)phenyl)-1H-pyrazole], the mortality at 125 ppm in the data set with Spodoptera litura, with Plutella xylostella, in the data set on Aphis craccivora and in the data set with Phyllotreta striolata was at least 80% in each case.
The molecule `CCS(=O)(=O)c1cc(C(F)(F)F)ccc1-n1ncc(-c2ccc(C(F)(F)C(F)(F)F)nc2)c1N` [Compound 1-33] returned an insect mortality rate in the data set on Pseudaletia separata of 100%. Further, the prevention rate with Rhopalosiphum padi is reported as at least 80%.
